These results are taken from US20230302018A1 (priority 2022, published 2023).

The assay has as its system Male Wistar rats exposed to nitrogen mustard (NM). The settings on record: rat, in vivo.

With `CC[C@H]1[C@@H](O)[C@@H]2[C@H](CC[C@]3(C)[C@@H]([C@H](C)CCC(=O)O)CC[C@@H]23)[C@@]2(C)CC[C@@H](O)C[C@@H]12` [OCA, 6α-ethyl-chenodeoxycholic acid], the “reduction in total collagen (hydroxyproline in tissue) compared to NM alone” value was found to be 2 fold.
